# “Also recorded” adds a separate entry of the source.
# Key:
# [1] = tested on: human naïve state stem cells; experiment: stem cell drug screening assay on naïve state stem cells; assay type: cell-based; settings: 500 nM or 1 uM, cells from NME7AB or NME1 dimers, growth factor absent
# [2] = tested on: human primed state stem cells; experiment: stem cell drug screening assay on primed state stem cells; assay type: cell-based; settings: treated for 3 days, bFGF absent
# Method: The stem cell screening assay, was performed in both the presence and absence of the stem cell growth factors: NME7AB for growing naïve stem cells or FGF for growing primed stem cells. If the cognate growth factor was present, then the biological or small molecule would have to compete away the growth factor to get an effect. Therefore, we expected to see more of an effect when the growth factor, FGF for primed stem cells or NME7AB or NME1 dimers for naïve stem cells, was absent. The effect of the compounds on stem cells was visually determined and compounds were ranked 0-4, with 4 being the greatest effect and 0 being no observable effect. The major effect that was observed was a change from pluripotent stem cell morphology, which is a cobblestone pattern of small round cells with a large nucleus to cytoplasm ratio, to that of differentiating stem cells, which are elongated, large and flattened cells with a smaller nucleus to cytoplasm ratio. […] The compounds were added to a final concentration of 6 uM to either naïve state stem cells or primed state stem cells. In this particular case, the naïve state stem cells were maintained in a naïve state by culturing in a media containing NME7AB or NME1 dimers. However, other methods such as 2i and 5i (Silva et al., 2008, Nichols and Smith, 2009, Theunissen et al., 2014)] can be used to maintain stem cells in a more naïve state. In this case primed state stem cells were cultured in bFGF over a layer of MEFs, although it is known that any bFGF containing media will maintain stem cells in the primed state.
# Stem cells whether embryonic or induced pluripotent stem (iPS) cells were cultured in a minimal, serum-free media that contained human recombinant bFGF at a concentration of 8 ng/mL. The stem cells were plated over a layer of inactivated mouse embryonic fibroblasts, aka MEFs, which secrete additional uncharacterized growth factors and cytokines.
# Human naïve state and primed stem cells were cultured in parallel for at least 5 passages to guarantee normal differentiation-free growth. The stem cells were plated in 12-well cell culture plates with 50,000 cells per well. Cells were cultured in their respective media, either bFGF media or NME7AB media for 24 hours. Media was then removed and replaced with media devoid of bFGF or NME7AB, when indicated. Agents being tested for their ability to induce differentiation of naïve stem cells were added to the media at the concentrations indicated. After 72 hours, photographs were taken see FIGS. 1-10.
# Human naïve state and primed stem cells were cultured in parallel for at least 5 passages to guarantee normal differentiation-free growth. The stem cells were plated in 12-well cell culture plates with 50,000 cells per well. Cells were cultured in their respective media, either bFGF media or NME7AB media for 24 hours. Media was then removed and replaced with media devoid of bFGF or NME7AB. […] Media was changed after 48 hours and replaced with fresh media containing the BRD4 inhibitors. After 4 days the experiment was stopped. Photographs were taken and cell pellets collected for further analysis, see FIGS. 11-16.
# [3] = tested on: E-cadherin, fibronectin, vimentin and NF1 expression in naïve stem cells; experiment: RT-PCR of differentiation markers in treated naïve stem cells; assay type: cell-based, human
# Method: FIG. 161 is a graph of RT-PCR measurement of naïve stem cells that have been treated with compounds of the invention. The genes whose expression is measured are E-cadherin, which goes […] as cells undergo epithelial to mesenchymal transition, fibronectin and vimentin, which both increase as stem cells initiate differentiation and NF1, which is one of the first genes to increase when stem cells begin to differentiate down the neural lineage. […] E-cadherin is the opposite; it […] as cells become cancerous. […] Expression of metastatic marker E-cadherin was reduced and expression of differentiation markers fibronectin, vimentin and NF1 were increased (FIG. 162-FIG. 163). Novel compounds of the invention are highly specific. […] Although we discovered that NME1 dimers, NME7AB and NME7-X1 are all activating ligands of the MUC1* growth factor receptor and they bind to its extracellular domain, we have developed ample evidence that both NME7AB and NME7-X1 have other binding partners and can exert oncogenic effects, independent of MUC1*.
smiles,measurement,setting,value
"Cc1sc2c(c1C)C(c1ccc(Cl)cc1)=N[C@@H](CC(=O)OC(C)(C)C)c1nnc(C)n1-2 [JQ1+, JQ1]",effect on naïve stem cell differentiation and growth,[1],dramatically induced differentiation
same,effect on naïve stem cell differentiation and growth,[1]; listed as JQI,inhibitory effect
same,effect on primed stem cell colony size and morphology,[2]; listed as JQ1(+),modest effect on the size of primed stem cell colonies; also recorded: some abnormal morphology
same,induction of differentiation of primed state stem cells,[2]; listed as JQ1(+),None of these agents appeared to induce differentiation
same,induction of differentiation of primed state stem cells,[2]; listed as JQI,not primed stem cell growth
same,up-regulation of markers of differentiation in naïve stem cells (RT-PCR),[3],did not cause up-regulation of markers of differentiation

# Source: patent US11931347B2, “Method of screening for agents for differentiating stem cells” (MINERVA BIOTECHNOLOGIES CORPORATION, priority 2015, dated 2024)
